From publication PMC12508063, “Chloroindazole based estrogen receptor β ligands with favorable pharmacokinetics promote functional remyelination and visual recovery” (Scientific Reports, 2025) come the findings set out here.

By Cmax is commonly meant the peak of the concentration-time curve. Usually Tmax stands for the time from dosing to the highest level.

A short description of series [1]: Oral PK of K102 at 40 mg/kg in female dogs. It counts as in vivo, beagle dog. The conditions noted are these: female dog, PO 40 mg/kg, mean.
A short description of series [2]: Plasma protein binding (mouse).
The subject of series [3] is Human iPSC-derived OPCs (Tempo's iOligo). Briefly: Differentiation of human iPSC-derived OPCs (Tempo iOligo), MBP. It counts as cell-based. The settings on record: human OLs, 10 nM, 18 days. The text has this: Mouse and Human primary cell cultures: Primary OPC/OL culture were isolated from the cortices of postnatal day 0–1 C57BL/6J mice of both sexes, using established protocols[11],[20],[21]. Mouse OPC and Neuronal Co-cultures: Primary neuronal cultures were established in Neurobasal medium with B27 and plated on poly-L-lysine-coated coverslips. After 12 days, OPCs were isolated, counted, and added to neuronal cultures and media was replaced with neuronal and proliferation media for 3 days, then switched to maturation media that maintained both neurons and OLs. Human iPSC-derived OPCs (Tempo’s iOligo™) were expanded, cryopreserved, and later plated on Matrigel-coated coverslips. After 3 days in growth medium, cells were treated for 3 weeks with T3 containing maturation medium. Differentiation into myelin-producing OLs was assessed using O4 (OL surface marker on pre-OLs) and myelin basic protein (MBP) immunohistochemistry. In all conditions compounds or vehicle were added to culture during differentiation for either 5 days (mouse) or 18 days (human). […]
Tempo’s iOligo (OPC) cells form branched bipolar and tripolar structures when cultured as a monolayer and express OL markers, including O4, NG2, and CNPase. […] After plating human OPCs and allowing two days of growth in expansion media, the culture medium was switched to T3 + maturation medium and evaluated for MBP expression (Fig. 8i). […]

Series [4] deals with EAE optic nerve gene transcripts. Briefly: NanoString nCounter Mouse Neuropathology gene expression, optic nerve RNA. It counts as in vivo. As for the experimental part:
RNA Extraction and NanoString nCounter Gene Expression Assay: RNA was isolated from a single optic nerve of normal, EAE+Vehicle, and EAE+K102 mice[28]. The RNA samples were analyzed using the nCounter Mouse Neuropathology panel (NanoString Technologies) (Supplementary Data Set 1). Fold changes were calculated using normalized data for the three groups (Supplementary Data Set 2).
Genes associated with myelination, inflammation, and axon health are altered in EAE optic nerves compared to normal optic nerves. To examine how K102 treatment affects these gene transcripts, RNA from treated optic nerves was analyzed using the NanoString Neuropathology gene expression panel (Fig. 7A, Supplementary Data Set 1). […] Ccr2 is a chemokine receptor involved in recruiting immune cells to sites of inflammation. Cpt1b (carnitine palmitoyltransferase 1B) is an enzyme critical for fatty acid oxidation.
RNA Extraction and NanoString nCounter Gene Expression Assay: RNA was isolated from a single optic nerve as described previously in(9). Optic nerves were isolated from normal, EAE+V, and EAE+K102 mice. RNA isolates were run on the nCounter Mouse Neuropathology panel (NanoString Technologies, Seattle, WA). Normalized data was used to calculate fold change for all three groups.
For nCounter gene expression analysis, normalized counts were used to calculate log2 fold changes. Welch’s t-test (unequal variance t-test) was applied when comparing NM vs. EAE+V and EAE+V vs. EAE+K102, as both sample sizes and variances differed between groups. Significance levels were set as follows: *p < 0.05, **p < 0.01, ***p < 0.001, and ****p < 0.0001. Summary of statistics for Figures is in a table format in the supplementary sections Supplementary TableS7-S12 […]

Series [5] has as its target CYP2D6 (Homo sapiens, UniProt P10635). The conditions noted are these: 10 µM.
The conditions of series [6]: microsomes.
Series [7] has as its target CYP3A4 (Homo sapiens, UniProt P08684). The conditions noted are these: 10 µM.

CYP2D6, sequence (P10635 whole entry): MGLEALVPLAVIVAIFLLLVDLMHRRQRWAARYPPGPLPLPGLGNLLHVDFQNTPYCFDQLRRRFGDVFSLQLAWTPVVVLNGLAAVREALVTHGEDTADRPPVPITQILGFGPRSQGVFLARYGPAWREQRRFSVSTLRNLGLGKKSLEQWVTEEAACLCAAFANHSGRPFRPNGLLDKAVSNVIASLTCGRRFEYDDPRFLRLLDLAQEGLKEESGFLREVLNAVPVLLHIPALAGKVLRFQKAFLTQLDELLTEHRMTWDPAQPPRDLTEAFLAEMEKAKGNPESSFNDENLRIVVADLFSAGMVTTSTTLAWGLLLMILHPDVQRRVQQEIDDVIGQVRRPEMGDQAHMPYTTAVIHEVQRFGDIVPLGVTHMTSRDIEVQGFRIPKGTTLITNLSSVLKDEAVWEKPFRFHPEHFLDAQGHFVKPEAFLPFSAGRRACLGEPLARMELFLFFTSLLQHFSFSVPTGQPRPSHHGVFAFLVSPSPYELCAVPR
CYP3A4, sequence (P08684 whole entry): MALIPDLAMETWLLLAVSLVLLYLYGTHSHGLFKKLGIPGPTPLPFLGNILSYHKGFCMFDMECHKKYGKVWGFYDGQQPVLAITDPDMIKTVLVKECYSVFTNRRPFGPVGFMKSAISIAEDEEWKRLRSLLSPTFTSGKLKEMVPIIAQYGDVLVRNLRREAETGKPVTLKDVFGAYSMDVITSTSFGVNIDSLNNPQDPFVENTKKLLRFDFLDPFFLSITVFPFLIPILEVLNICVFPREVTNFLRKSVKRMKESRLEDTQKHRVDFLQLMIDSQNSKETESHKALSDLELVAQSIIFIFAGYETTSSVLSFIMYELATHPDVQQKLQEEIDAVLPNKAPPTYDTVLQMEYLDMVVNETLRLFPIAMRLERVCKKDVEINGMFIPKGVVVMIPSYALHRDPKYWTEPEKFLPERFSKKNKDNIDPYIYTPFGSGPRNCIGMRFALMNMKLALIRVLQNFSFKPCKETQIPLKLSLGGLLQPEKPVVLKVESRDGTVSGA

For the molecule `Cc1cc(O)ccc1-n1nc2ccc(O)cc2c1Cl` [Compound K102, IndCl-o-Me], in series [1], the AUCInf/D worked out at 0.6 kg·ng·h/mL/mg, the AUClast was found to be 24.6 ng·h/mL, the Cmax was found to be 31.7 ng/mL and the time to peak (Tmax) was 15 min. The “Protein Binding (% Bound) Mouse” value in series [2] is 96.81%. The “MBP levels vs vehicle control” value in series [3] is recorded as “significantly increased”. In addition, the “Ccr2 and Cpt1b transcripts vs vehicle-treated optic nerves” value in series [4] (2 of 770 genes) is given as “significantly altered”. In addition, in series [4] (optic nerve, EAE), the “Arc and Pvalb transcripts vs vehicle” value is recorded as “increased”; the “Sox10 and Olig2 transcripts relative to vehicle” value is reported as “increase”; the “complement system genes C1qa, C1qb, C1qc, and C3” value is listed as “did not significantly impact”. In addition, the “mitochondrial-related genes Pink1, Tfam, Mfn2, Park7, and Sirt2” value in series [4] (vs untreated EAE optic nerves) was “significant increase”.
Consider `Oc1ccc(-n2nc3ccc(O)cc3c2Cl)c(O)c1` [Compound K110, IndCl-o-OH], for which the “CYP Inhibition Percentage CYP2D6” value in series [5] was found to be 5.63%. For the same molecule, in series [6], the “Liver Microsome Stability (Human) CLint” value is listed as 13.64 µL/min/mg protein. The “Liver Microsome Stability (Human) % Remaining (30 min)” value in series [6] (0.5 h) came to 66.88%. Further, in series [7], the “CYP Inhibition Percentage CYP3A4-T” value came to 45.13%.
